Data on 32 compounds can be found in US20100331338A1, “Glucokinase Activators” (Merck Patent GMBH, priority 2008, published 2010).

For one assay, the target named is T1, hGK (Homo sapiens, UniProt P35557).
T1 sequence (P35557 1-465): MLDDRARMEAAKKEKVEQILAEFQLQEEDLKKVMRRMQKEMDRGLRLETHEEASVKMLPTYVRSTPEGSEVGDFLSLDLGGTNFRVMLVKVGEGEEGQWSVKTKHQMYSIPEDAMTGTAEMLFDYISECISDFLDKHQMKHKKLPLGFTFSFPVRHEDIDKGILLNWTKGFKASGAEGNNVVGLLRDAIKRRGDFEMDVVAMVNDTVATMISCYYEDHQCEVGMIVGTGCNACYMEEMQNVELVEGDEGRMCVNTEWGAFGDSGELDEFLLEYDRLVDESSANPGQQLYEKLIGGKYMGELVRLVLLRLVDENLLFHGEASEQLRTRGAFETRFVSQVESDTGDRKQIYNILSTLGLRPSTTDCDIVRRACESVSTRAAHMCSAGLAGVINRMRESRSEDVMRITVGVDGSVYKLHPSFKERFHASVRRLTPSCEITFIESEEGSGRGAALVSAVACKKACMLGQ
Kind of assay: Glucokinase Activation Screening Assay (coupled enzyme assay with PK/LDH). It is filed as biochemical. The settings on record: 2 mM glucose. The protocol: Glucokinase Activation Screening Assay
GK activity (human or rat enzyme) is measured by a coupled enzyme assay using pyruvate kinase (PK) and lactate dehydrogenase (LDH) as coupling enzymes. GK activity is calculated from the decline in NADH monitored photometrically with a microtiter plate (MTP) reader at 340 nm.
For screening purposes, the GK assay is routinely run in a 384-MTP format, in a total volume of 33 μl/well. 10 μl of the ATP-regeneration solution (in HEPES-buffer*, pH 7.0, 6.73 U/ml pyruvate kinase, 6.8 U/ml lactate dehydrogenase) and 10 μl of the glucokinase-/glucose solution (15 μg/ml, 6.6 mM glucose in HEPES-buffer*, pH 7.0; the concentration of the glucose stock-solution was 660 mM in Millipore H2O) were mixed together with […] of a 10% DMSO solution (in HEPES-buffer*, pH 7.0) containing 3.3-fold the amounts of the compounds to achieve final compound concentrations in the range between 1 nM to 30 μM (sometimes 300 μM) in the assay solution (s. below). The solutions were mixed for 5 sec, and after a centrifugation at 243×g for 5 min, the solutions were preincubated for 25 min at room temperature.
The reaction was started by the addition of 10 μl of the NADH-/ATP-solution (4.29 mM NADH, 4.95 mM ATP, in HEPES-buffer*). The MTP was shaken for 5 sec., and then, the absorbance at 340 nm was monitored continuously in a MTP-reader (TECAN Spectro fluor plus) for the next 27 min (with a MTP-cycling time of 199 sec.). The final concentrations of the various components were as follows: 49.5 mM Hepes, pH 7.0, 1.49 mM PEP,1,3 mM NADH, 49.5 mM KCl, 4.96 mM MgCl2, 1.5 mM Mg-ATP, 1.98 mM DTT, 2.04 U/ml pyruvate kinase, 2.06 U/ml lactate-dehydrogenase, 0.91% DMSO, 0.15 μg/well glucokinase, and test compounds in the range between 1 nM and 300 μM.
The change in the optical density (ΔOD340 nm) in the presence of the compound was expressed relative to the ΔOD340 nm, ctrl of the control incubation (in the presence of 2 mM glucose and 0.91% DMSO), taking into account the optical density of the blank sample (incubation in the absence of 2 mM glucose). For the determination of the half maximal effective concentration (EC50), the %-Ctrl-values were plotted in a semi-logarithmic graph against the conc. of the compound of interest. The data points were fitted to a sigmoid curve function (f(x)=((%-Ctrlmax%-Ctrlmin)/(1−(EC50/x**^n(Hill)))+%-Ctrlmin)) by a non-linear regression analysis.
* Hepes-buffer (50 mM Hepes, pH 7.0, 5 mM MgCl2, 50 mM KCl, 1.5 mM PEP, 0.1% BSA). DTT was added to the Hepes-buffer from a 200× stock solution (in Millipore H2O) freshly each day. The final concentration of DTT in the Hepes-buffer is 2 mM.
In general, EC50 refers to the concentration needed to bring the measured effect to its halfway point. A high value points to lower potency in that assay. In turn, `CS(=O)(=O)c1cc(C(=O)Nc2nccs2)sc1Cl` [Example 5, 5-Chloro-4-methanesulfonyl-thiophene-2-carboxylic acid thiazol-2-ylamide] came in with an EC50 of 5.9 µM.

On to `CCCc1cc(C(=O)Nc2nc(C)cs2)cs1` [Example 10, 5-Propyl-thiophene-3-carboxylic acid(4-methyl-thiazol-2-yl)-amide], for which the EC50 was 9.3 µM.

`CCCc1cc(C(=O)Nc2nc(CC(=O)OCC)cs2)cs1` [Example 11, {2-[(5-Propyl-thiophene-3-carbonyl)-amino]thiazol-4-yl}-acetic acid ethyl ester] displayed an EC50 of 15 µM.

As for `CCCc1cc(C(=O)Nc2nc(C(=O)OCC)cs2)cs1` [Example 12, 2-[(5-Propyl-thiophene-3-carbonyl)-amino]-thiazole-4-carboxylic acid ethyl ester], the EC50 turned out to be 5 µM.

On to `CCOC(=O)Cn1ccc(NC(=O)c2cc(COC)cs2)n1` [Example 40, {3-[(4-Methoxymethyl-thiophene-2-carbonyl)-amino]-pyrazol-1-yl}-acetic acid ethyl ester], for which the EC50 is 4.2 µM.

The assay is the same for the next values; noted with them: fold activation at 30 μM compound, 2 mM glucose.
As for `O=C(Nc1nccs1)c1ccsc1` [Example 2, Thiophene-3-carboxylic acid thiazol-2-ylamide], the “hGK fold activation at 30 μM” value came to 1.3.

`O=C(Nc1nccs1)c1cccs1` [Example 3, Thiophene-2-carboxylic acid thiazol-2-ylamide]: the “hGK fold activation at 30 μM” value is 1.3.

For `Cc1csc(C(=O)Nc2nccs2)c1` [Example 4, 4-Methyl-thiophene-2-carboxylic acid thiazol-2-ylamide], the “hGK fold activation at 30 μM” value was found to be 3.4.

Turning to `CS(=O)(=O)c1cc(C(=O)Nc2nccs2)sc1Cl` [Example 5, 5-Chloro-4-methanesulfonyl-thiophene-2-carboxylic acid thiazol-2-ylamide], the “hGK fold activation at 30 μM” value is 1.9.

`O=C(Nc1nccs1)c1csc2ccccc12` [Example 6, Benzo[b]thiophene-3-carboxylic acid thiazol-2-ylamide]: the “hGK fold activation at 30 μM” value turned out to be 1.2.

With `O=C(Nc1nccs1)c1csc2c1CCCC2` [Example 7, 4,5,6,7-Tetrahydro-benzo[b]thiophene-3-carboxylic acid thiazol-2-ylamide], the “hGK fold activation at 30 μM” value came to 1.2.

Regarding `CC1CCc2c(C(=O)Nc3nccs3)csc2C1` (stereo not shown) [Example 8, 6-Methyl-4,5,6,7-tetrahydro-benzo[b]thiophene-3-carboxylic acid thiazol-2-ylamide], the “hGK fold activation at 30 μM” value is reported as 1.6.

Turning to `CCCc1cc(C(=O)Nc2nc(C)cs2)cs1` [Example 10, 5-Propyl-thiophene-3-carboxylic acid(4-methyl-thiazol-2-yl)-amide], the “hGK fold activation at 30 μM” value is recorded as 5.2.

In the case of `CCCc1cc(C(=O)Nc2nc(CC(=O)OCC)cs2)cs1` [Example 11, {2-[(5-Propyl-thiophene-3-carbonyl)-amino]thiazol-4-yl}-acetic acid ethyl ester], the “hGK fold activation at 30 μM” value was 4.9.

Consider `CCCc1cc(C(=O)Nc2nc(C(=O)OCC)cs2)cs1` [Example 12, 2-[(5-Propyl-thiophene-3-carbonyl)-amino]-thiazole-4-carboxylic acid ethyl ester], for which the “hGK fold activation at 30 μM” value was 2.6.

Consider `CCCc1cc(C(=O)Nc2nc(C)c(C(=O)OCC)s2)cs1` [Example 13, 4-Methyl-2-[(5-propyl-thiophene-3-carbonyl)-amino]-thiazole-5-carboxylic acid ethyl ester], for which the “hGK fold activation at 30 μM” value is 1.5.

Consider `CCCc1cc(C(=O)Nc2ncc[nH]2)cs1` [Example 14, 5-Propyl-thiophene-3-carboxylic acid(1H-imidazol-2-yl)-amide], for which the “hGK fold activation at 30 μM” value is 2.1.

With `COCc1csc(C(=O)Nc2ccn(Cc3ccccn3)n2)c1` [Example 15, 4-Methoxymethyl-thiophene-2-carboxylic acid(1-pyridin-2-ylmethyl-1H-pyrazol-3-yl)-amide], the “hGK fold activation at 30 μM” value is 3.

Take `Cc1csc(C(=O)Nc2cc(C)n(Cc3ccccn3)n2)c1` [Example 16, 4-Methyl-thiophene-2-carboxylic acid(5-methyl-1-pyridin-2-ylmethyl-1H-pyrazol-3-yl)-amide]: the “hGK fold activation at 30 μM” value came to 1.3.

In the case of `COCc1csc(C(=O)Nc2cc(C)n(Cc3ccccn3)n2)c1` [Example 17, 4-Methoxymethyl-thiophene-2-carboxylic acid(5-methyl-1-pyridin-2-ylmethyl-1H-pyrazol-3-yl)-amide], the “hGK fold activation at 30 μM” value turned out to be 1.8.

Regarding `CS(=O)(=O)c1csc(C(=O)Nc2nccs2)c1Cl` [Example 18, 3-Chloro-4-methanesulfonyl-thiophene-2-carboxylic acid thiazol-2-ylamide], the “hGK fold activation at 30 μM” value is 1.2.

Consider `O=C(Nc1nccs1)c1cc(-c2ccc(Cl)cc2)cs1` [Example 19, 4-(4-Chloro-phenyl)-thiophene-2-carboxylic acid thiazol-2-ylamide], for which the “hGK fold activation at 30 μM” value was found to be 1.5.

In the case of `O=C(Nc1nccs1)c1csc([N+](=O)[O-])c1` [Example 20, 5-Nitro-thiophene-3-carboxylic acid thiazol-2-ylamide], the “hGK fold activation at 30 μM” value is listed as 1.4.

For the compound `CCCc1cc(C(=O)Nc2nc3ccccc3[nH]2)cs1` [Example 21, 5-Propyl-thiophene-3-carboxylic acid(1H-benzoimidazol-2-yl)-amide], the “hGK fold activation at 30 μM” value is 2.4.

Regarding `CCCc1cc(C(=O)Nc2nncs2)cs1` [Example 24, 5-Propyl-thiophene-3-carboxylic acid[1,3,4]thiadiazol-2-ylamide], the “hGK fold activation at 30 μM” value stood at 2.4.

With `Cc1ccc(C(=O)Nc2nccs2)s1` [Example 26, 5-Methyl-thiophene-2-carboxylic acid thiazol-2-ylamide], the “hGK fold activation at 30 μM” value is 1.5.

Consider `CCCc1cc(C(=O)Nc2ccc(F)cn2)cs1` [Example 27, 5-Propyl-thiophene-3-carboxylic acid(5-fluoro-pyridin-2-yl)-amide], for which the “hGK fold activation at 30 μM” value is given as 2.1.

Take `CCCc1cc(C(=O)Nc2ccon2)cs1` [Example 28, 5-Propyl-thiophene-3-carboxylic acid isoxazol-3-ylamide]: the “hGK fold activation at 30 μM” value is recorded as 2.

Turning to `CCCc1cc(C(=O)Nc2ccn(C)n2)cs1` [Example 29, 5-Propyl-thiophene-3-carboxylic acid(1-methyl-1H-pyrazol-3-yl)-amide], the “hGK fold activation at 30 μM” value was 5.5.

In the case of `CCCc1cc(C(=O)Nc2cc(Cl)ccn2)cs1` [Example 31, 5-Propyl-thiophene-3-carboxylic acid(4-chloro-pyridin-2-yl)-amide], the “hGK fold activation at 30 μM” value was found to be 2.7.

On to `CCCc1sc(C(=O)Nc2nccs2)cc1CC` [Example 33, 4-Ethyl-5-propyl-thiophene-2-carboxylic acid thiazol-2-ylamide], for which the “hGK fold activation at 30 μM” value is given as 9.4.

With `CCCc1cc(C(=O)Nc2ccncn2)cs1` [Example 36, 5-Propyl-thiophene-3-carboxylic acid pyrimidin-4-ylamide], the “hGK fold activation at 30 μM” value is 2.7.

Regarding `CCCc1cc(C(=O)Nc2ccn(Cc3ccccn3)n2)cs1` [Example 37, 5-Propyl-thiophene-3-carboxylic acid(1-pyridin-2-ylmethyl-1H-pyrazol-3-yl)-amide], the “hGK fold activation at 30 μM” value came out at 3.6.

For `CCCc1cc(C(=O)Nc2cc[nH]n2)cs1` [Example 38, 5-Propyl-thiophene-3-carboxylic acid(1H-pyrazol-3-yl)-amide], the “hGK fold activation at 30 μM” value amounted to 2.7.

For `CCCc1cc(C(=O)Nc2cc(C)ccn2)cs1` [Example 39, 5-Propyl-thiophene-3-carboxylic acid(4-methyl-pyridin-2-yl)-amide], the “hGK fold activation at 30 μM” value was 2.4.

Take `CCOC(=O)Cn1ccc(NC(=O)c2cc(COC)cs2)n1` [Example 40, {3-[(4-Methoxymethyl-thiophene-2-carbonyl)-amino]-pyrazol-1-yl}-acetic acid ethyl ester]: the “hGK fold activation at 30 μM” value came out at 2.6.

Regarding `CCCc1cc(C(=O)Nc2ccccn2)cs1` [Example 41, 5-Propyl-thiophene-3-carboxylic acid pyridin-2-ylamide], the “hGK fold activation at 30 μM” value was 2.5.
